Read-outs that look alike come from different tables or passages of the source.
Key:
HFF-1 = experiment: MTT cell viability assay, normal fibroblasts HFF-1; format: cell-based, human; conditions: Homo sapiens; HFF-1 normal cells, MTT, 72 h
Protocol: All compounds were dissolved in DMSO (stock solutions) and then diluted in culture media to the final working concentrations. […] The effects of compounds 4a-p and 2b on cancer cell viability were tested by an MTT assay (Sigma-Aldrich, St. Louis, MO, USA), as described by Florio et al. [17]. In the initial screening all compounds were tested at a one-point screening concentration of 75 μM for 72 h (five replica wells per each condition).
IC50 values were extrapolated from concentration–response curves and calculated using the CompuSyn software [45]. […] SI values were calculated as previously described [46]. Comparisons of mean values were performed using an unpaired Student’s t-test. For multiple comparisons, a one-way ANOVA followed by Dunnett’s test were employed. A p-value < 0.05 was estimated as statistically significant.

PTJ64i [1] = experiment: MTT cell viability assay, PTJ64i; format: cell-based; conditions: for Selectivity Index (SI): IC50 in normal (HFF-1) fibroblast cells/IC50 in PTJ64i; for IC50: PTJ64i paraganglioma, MTT, 72 h
Protocol: (§1) Compounds 4a–p were submitted to a preliminary MTT assay at a one-point screening concentration of 75 μM for 72 h, including 2b as a reference compound (Figure 3). […] The presence of the electron-donating methoxy group decreased the activity of 2b, in both the para and meta positions. […] Specifically, these compounds, namely 4d, 4e, 4f, 4h, 4i, 4j, 4k, 4l, and 4m, were tested at concentrations of 3, 6, 12 and 24 µM for 72 h. In addition, the nine compounds, together with 2b, were tested against human fibroblasts HFF-1, in order to evaluate their selectivity against tumor cells, as compared to normal cells. Effects on cancer or normal cell viability were extrapolated from concentration–response curves and are expressed as IC50 values in Table 2.
(§2) Pancreatic cancer (AsPC-1, BxPC-3, and Capan-2), paraganglioma (PTJ86i and PTJ64i) and normal fibroblast (HFF-1) cell lines were cultured as previously described. All compounds were dissolved in DMSO (stock solutions) and then diluted in culture media to the final working concentrations. In this way, the solutions were completely clear and devoid of any undissolved material by microscopic inspection. […] The effects of compounds 4a-p and 2b on cancer cell viability were tested by an MTT assay (Sigma-Aldrich, St. Louis, MO, USA), as described by Florio et al.. In the initial screening all compounds were tested at a one-point screening concentration of 75 μM for 72 h (five replica wells per each condition). […] For combined treatments, the experimental design was made according to the Chou–Talalay method for drug combination studies, as previously described.
(§3) IC50 values were extrapolated from concentration–response curves and calculated using the CompuSyn software. […] Based on this analysis, a CI < 1 indicates synergism, a CI = 1 indicates additive effects and a CI > 1 indicates antagonism. SI values were calculated as previously described. Comparisons of mean values were performed using an unpaired Student’s t-test. For multiple comparisons, a one-way ANOVA followed by Dunnett’s test were employed. A p-value < 0.05 was estimated as statistically significant.

PTJ86i [2] = experiment: MTT cell viability assay, PTJ86i; format: cell-based; conditions: for Selectivity Index (SI): IC50 in normal (HFF-1) fibroblast cells/IC50 in PTJ86i; for IC50: PTJ86i paraganglioma, MTT, 72 h
Protocol: as §1, §2, §3

PTJ86i [3] = test system: PTJ86i; parameters: method as in PMID 28594934; conditions: PTJ86i paraganglioma, previously published; cited from earlier work
AsPC-1 = experiment: MTT cell viability assay, AsPC-1; format: cell-based; conditions: for IC50: Homo sapiens, ASPC1, AsPC-1 pancreatic cancer, MTT, 72 h; for Selectivity Index (SI): IC50 in normal (HFF-1) fibroblast cells/IC50 in AsPC-1
Protocol: as §1, §2, §3

PTJ64i [4] = test system: PTJ64i; parameters: method as in PMID 28594934; conditions: PTJ64i paraganglioma, previously published; cited from earlier work
Capan-2 = experiment: MTT cell viability assay, Capan-2; format: cell-based; conditions: for IC50: Homo sapiens, Capan-2 pancreatic cancer, MTT, 72 h; for Selectivity Index (SI): IC50 in normal (HFF-1) fibroblast cells/IC50 in Capan-2
Protocol: as §1, §2, §3

BxPC-3 = experiment: MTT cell viability assay, BxPC-3; format: cell-based; conditions: for IC50: Homo sapiens, BxPC-3 pancreatic cancer, MTT, 72 h; for Selectivity Index (SI): IC50 in normal (HFF-1) fibroblast cells/IC50 in BxPC-3
Protocol: as §1, §2, §3

[5] = test system: pancreatic (AsPC-1, BxPC-3, and Capan-2) and paraganglioma (PTJ64i and PTJ86i) cancer cell lines; experiment: One-point MTT screening at 75 µM in cancer cell lines; format: cell-based; conditions: one-point screening concentration of 75 μM for 72 h, five cancer cell lines
Protocol: as §1, §2
Figure 3 Screening of the effects of novel derivatives (4a–p) on the viability of pancreatic (AsPC-1, BxPC-3, and Capan-2) and paraganglioma (PTJ64i and PTJ86i) cancer cell lines. The lead compound 2b was included as a reference and the histograms show the relative decrease of cancer cell viability observed after treatments, as compared to 2b. Cell viability was assessed by an MTT assay using compounds at 75 µM for 72 h. Data shown are the means ± SD of duplicate experiments with quintuplicate determinations and are calculated as ratios relative to the reference compound 2b (dashed line).

IC50 (AsPC-1) [µM] | IC50 (BxPC-3) [µM] | melting point [°C] | Compound | IC50 (HFF-1) [µM] | Selectivity Index (SI) (PTJ64i [1]) | Selectivity Index (SI) (PTJ86i [2]) | IC50 (PTJ86i [3]) [µM] | Selectivity Index (SI) (AsPC-1) | IC50 (PTJ64i [4]) [µM] | IC50 (Capan-2) [µM] | Selectivity Index (SI) (Capan-2) | Selectivity Index (SI) (BxPC-3) | IC50 (PTJ64i [1]) [µM] | effect on cancer cell viability, potency compared with 2b [5] | IC50 (PTJ86i [2]) [µM]
12.4 | 15 |  | O=C(Nc1ccccc1)C(Sc1nc2cc(Cl)ccc2s1)c1ccccc1 (stereo not shown) [2b, reference compound] | 21.4 | 2.52 | 1.28 | 16.7 | 1.72 | 8.49 | 19.7 | 1.09 | 1.43 |  |  | 
14.8 | 18.6 | 151 to 153 | O=C(Nc1cccc(F)c1)C(Sc1nc2cc(Cl)ccc2s1)c1ccccc1 (stereo not shown) [4i, 2-[(5-Chlorobenzo[d]thiazol-2-yl)thio]-N-(3-fluorophenyl)-2-phenylacetamide] | 15 | 1.74 | 1.28 |  | 1.01 |  | 28.5 | 0.53 | 0.81 | 8.6 | greater antiproliferative activity than 2b | 11.7
10.1 | 11.9 | 193 to 195 | O=C(Nc1cccc([N+](=O)[O-])c1)C(Sc1nc2cc(Cl)ccc2s1)c1ccccc1 (stereo not shown) [4k, 2-[(5-Chlorobenzo[d]thiazol-2-yl)thio]-N-(3-nitrophenyl)-2-phenylacetamide] | 23.3 | 3.12 | 1.73 |  | 2.31 |  | 16.9 | 1.38 | 1.96 | 7.47 | greater antiproliferative activity than 2b | 13.5

Reference: article PMC9412555, “Benzothiazole Derivatives Endowed with Antiproliferative Activity in Paraganglioma and Pancreatic Cancer Cells: Structure–Activity Relationship Studies and Target Prediction Analysis” (Pharmaceuticals, 2022)
